Assay results taken from US8048868B1, “Method of preventing preeclampsia” (Scott & White Healthcare, priority 2008, dated 2011).

Experiments:
[1] = system: pregnant DOCA+saline (PDS) rats; assay: Rat model of preeclampsia (pregnant DOCA+saline rats), RBG given daily from day 4 of pregnancy; assay type: in vivo, Sprague-Dawley rats; conditions: RBG 15 μg/kg/min daily given to PDS rats (data not shown)
[2] = system: normal pregnant rats; assay: Normal pregnant rats given RBG daily from day 4 of pregnancy (NPR); assay type: in vivo, Sprague-Dawley rats
Experimental: Female Sprague-Dawley rats (200-250 g) were obtained from Charles River Laboratories (Wilmington, Mass.) and housed in the animal facility. They were allowed free access to standard rat chow and tap water. Animal care was conducted in accordance with institutional guidelines. The rats were acclimatized for 1 week prior to being studied. The animals were mated with male Sprague-Dawley rats (Charles River Laboratories, Wilmington, Mass.) weighing 275-300 g. Pregnancy was confirmed by the presence of vaginal plugs or by examination of vaginal smears. The pregnant females were then isolated from the males. Four groups of animals were studied: normal pregnant (NP) rats given tap water ad libitum (n=10), pregnant DOCA+saline (PDS) animals (n=8) injected initially with 12.5 mg of DOCA in a depot form intraperitoneally followed by 6.5 mg on a weekly basis and whose drinking water was replaced with 0.9% saline; […] (NPR rats, n=5); and, pregnant DOCA+saline+RBG (PDSR) animals (n=8) given daily injections of RBG in a dose of 30 micrograms per kilogram body weight per day intraperitoneally beginning on day 4 of pregnancy in addition to treatment with DOCA+saline. RBG was obtained from ChromaDex (Santa Ana, Calif.) and dissolved in dimethyl sulfoxide (DMSO). Systolic blood pressure (BP) was measured by the tail-cuff method (IITC Inc., LifeScience Instruments, model 59). For each BP value reported, 3-4 readings were performed when the BP had stabilized and the mean of these values was calculated. The measurements were obtained at the following time points: prior to pregnancy (baseline), at 1-4 days, 4-7 days, 6-9 days, 8-11 days, 11-14 days, 13-16 days, 15-18 days and 18-21 days of pregnancy. At 18-21 days of pregnancy, 24-hr urine was collected in the absence of food (this was done to eliminate contamination of the urinary protein determination by any fallen food particles). Each animal was housed separately in a metabolic cage. The rats were sacrificed at 18-21 days of pregnancy and blood was drawn. The pups were counted and inspected for malformations. The 24-hr protein excretion was measured using the pyrogallol red method (Total protein Kit, Micro Pyrogallol Red Method, Sigma).
Creatinine was measured in the blood and urine on a Nova 16 Analyzer (Waltham, Mass.) and the creatinine clearance was calculated. Hematocrit was measured using a StatSpin MP Multipurpose Centrifuge (Norwood, Mass.). Statistics were performed using analysis of variance (ANOVA) and Tukey's post-hoc test.
Blood pressure results for four groups of experimental animals obtained at various time periods during gestation: NP=normal pregnant rats; PDS=pregnant animals given saline in their drinking water and injected weekly with DOCA; PDSR=rats in whom resibufogenin 30 μg/kg/day) was injected at the onset of pregnancy along with DOCA and the provision of saline as drinking water; NPR=normal pregnant animals injected daily with resibufogenin 30 μg/kg/day. See text for statistical analyses.

[3] = system: pregnant DOCA+saline (PDS) rats; assay: Rat model of preeclampsia (pregnant DOCA+saline rats), RBG given daily from day 4 of pregnancy; assay type: in vivo, Sprague-Dawley rats
Description: In an attempt to reproduce this situation, a rat model was developed and employed in which pregnant animals are given weekly injections of the powerful mineralocorticoid desoxycorticosterone acetate (DOCA) and whose drinking water is replaced with saline Ianosi-Irimie M, Vu H V, Whitbred J M, et al. A rat model of preeclampsia. Clin Exp Hypertens 2005; 8:605-17. These animals develop characteristic findings of human preeclampsia including hypertension, proteinuria, excessive body weight gain and IUGR. In addition, associated with their experimental condition, they excrete increased amounts of the bufodienolide, marinobufagenin (MBG) Vu H V, Ianosi-Irimie M R, Pridjian C A, et al. Involvement of marinobufagenin in a rat model of human preeclampsia. Am J NephroI 2005; 25:520-8. MBG is a cardiotonic steroid which has vasoconstrictor, natriuretic and cardiac inotropic properties Schoner W. Endogenous cardiac glycosides, a new class of steroid hormones. Eur J Biochem 2002; 269:2440-8. Furthermore, the increased urinary excretion of this compound precedes the development of hypertension and proteinuria Vu H V, Ianosi-Irimie M R, Pridjian C A, et al. Involvement of marinobufagenin in a rat model of human preeclampsia. Am J NephroI 2005; 25:520-8. […] Therefore, the purpose of the study which is presented in this communication was to determine if intervention early in pregnancy would have more beneficial effects on IUGR than the administration of RBG at a time when the rodent disorder was already established.
Female Sprague-Dawley rats (200-250 g) were obtained from Charles River Laboratories (Wilmington, Mass.) and housed in the animal facility. They were allowed free access to standard rat chow and tap water. Animal care was conducted in accordance with institutional guidelines. The rats were acclimatized for 1 week prior to being studied. The animals were mated with male Sprague-Dawley rats (Charles River Laboratories, Wilmington, Mass.) weighing 275-300 g. Pregnancy was confirmed by the presence of vaginal plugs or by examination of vaginal smears. The pregnant females were then isolated from the males. Four groups of animals were studied: normal pregnant (NP) rats given tap water ad libitum (n=10), pregnant DOCA+saline (PDS) animals (n=8) injected initially with 12.5 mg of DOCA in a depot form intraperitoneally followed by 6.5 mg on a weekly basis and whose drinking water was replaced with 0.9% saline; normal pregnant rats given RBG by daily injection in a dose of 30 micrograms per kilogram body weight per day intraperitoneally beginning on day 4 of pregnancy (NPR rats, n=5); and, pregnant DOCA+saline+RBG (PDSR) animals (n=8) given daily injections of RBG in a dose of 30 micrograms per kilogram body weight per day intraperitoneally beginning on day 4 of pregnancy in addition to treatment with DOCA+saline. RBG was obtained from ChromaDex (Santa Ana, Calif.) and dissolved in dimethyl sulfoxide (DMSO). Systolic blood pressure (BP) was measured by the tail-cuff method (IITC Inc., LifeScience Instruments, model 59). For each BP value reported, 3-4 readings were performed when the BP had stabilized and the mean of these values was calculated. The measurements were obtained at the following time points: prior to pregnancy (baseline), at 1-4 days, 4-7 days, 6-9 days, 8-11 days, 11-14 days, 13-16 days, 15-18 days and 18-21 days of pregnancy. At 18-21 days of pregnancy, 24-hr urine was collected in the absence of food (this was done to eliminate contamination of the urinary protein determination by any fallen food particles). Each animal was housed separately in a metabolic cage. The rats were sacrificed at 18-21 days of pregnancy and blood was drawn. The pups were counted and inspected for malformations. The 24-hr protein excretion was measured using the pyrogallol red method (Total protein Kit, Micro Pyrogallol Red Method, Sigma). […]

[4] = system: "preeclamptic (PDS)" rats; conditions: RBG given when the disorder was established (Vu et al. 2006); cited from earlier work
[5] = NPR rats, RBG 30 micrograms/kg/day i.p., 18-21 days
[6] = PDSR rats, RBG 30 micrograms/kg/day i.p., 18-21 days

C[C@]12CC[C@H](O)C[C@H]1CC[C@@H]1[C@@H]2CC[C@]2(C)[C@@H](c3ccc(=O)oc3)C[C@H]3O[C@]132 [RBG, resibufogenin]
Prevention of hypertension at lower dose [1]: failed to prevent hypertension | Mean systolic blood pressure (tail-cuff), baseline ([2]; NPR rats (n=5), prior to pregnancy (baseline)): 104±5 mmHg | CCR (creatinine clearance) [2, 5]: 1.20 ± 0.49 mL/min | Hematocrit [2, 5]: 0.38±0.01 | Protein Excretion (24-hr urine) [2, 5]: 4.6±0.8 mg/24 hr | Pups (average number of pups) ([2]; NPR rats, RBG 30 micrograms/kg/day i.p., sacrifice at 18-21 days): 11.8±1.6 | Mean systolic blood pressure (tail-cuff), final ([2]; NPR rats: RBG 30 micrograms/kg/day i.p. from day 4, 18-21 days of pregnancy): 125±6 mmHg | Effect on blood pressure at lower dose ([2]; RBG 15 μg/kg/min daily, animal group not clearly stated (data not shown)): did increase blood pressure | Agonist effect on blood pressure ([2]; given alone to normal pregnant animals): causes modest hypertension | Mean systolic blood pressure (tail-cuff), baseline ([3]; PDSR rats (n=8), prior to pregnancy (baseline)): 105±5 mmHg | CCR (creatinine clearance) [3, 6]: 1.07 ± 0.29 mL/min | Hematocrit [3, 6]: 0.33±0.02 | Protein Excretion (24-hr urine) [3, 6]: 2.5±1.1 mg/24 hr | Pups (average number of pups) ([3]; PDSR rats, RBG 30 micrograms/kg/day i.p., sacrifice at 18-21 days): 14.6±1.3 | Mean systolic blood pressure (tail-cuff), final ([3]; PDSR rats: DOCA+saline + RBG 30 micrograms/kg/day i.p. from day 4, 18-21 days of pregnancy): 87±6 mmHg | Prevention of hypertension, proteinuria and intrauterine growth restriction (summary) ([3]; early administration in gestation): prevent hypertension, proteinuria and intrauterine growth restriction | Hypertension and proteinuria [4]: could be corrected | IUGR [4]: trend toward improvement
